# Data: article PMC10901774, “Mirror-image ligand discovery enabled by single-shot fast-flow synthesis of D-proteins” (Nature Communications, 2024)
# Like-named read-outs stand apart in the source and are kept apart here. *1 amine or outer side, *2 acyl side, *3 side chain or, on linkers, in order; H or OH if unused. Where a SMILES comes first, the peptide text is derived from it. Bridges are numbered along the chain shown (N, C = ends). [ ]: non-standard residue; d: D form. Phenylene(1,4-NHCOCH2)2 = O=C(C[*:1])Nc1ccc(NC(=O)C[*:2])cc1
# Tests used:
# [1] = target: T1, CHIP23-303 recombinant protein (Homo sapiens, UniProt Q9UNE7); test: competition fluorescence polarization against FAM-Hsp70 peptide loaded CHIP; assay type: binding; conditions: SI table 1.27.1, read-out: Measured IC50
# T1 construct: 6xHis (N, cleaved yes); TEV cleavage site (N, cleaved yes); made in house; host or cells: E. coli BL21 CodonPlus (pET21b-derived vector)
# T1 sequence (Q9UNE7 23-303): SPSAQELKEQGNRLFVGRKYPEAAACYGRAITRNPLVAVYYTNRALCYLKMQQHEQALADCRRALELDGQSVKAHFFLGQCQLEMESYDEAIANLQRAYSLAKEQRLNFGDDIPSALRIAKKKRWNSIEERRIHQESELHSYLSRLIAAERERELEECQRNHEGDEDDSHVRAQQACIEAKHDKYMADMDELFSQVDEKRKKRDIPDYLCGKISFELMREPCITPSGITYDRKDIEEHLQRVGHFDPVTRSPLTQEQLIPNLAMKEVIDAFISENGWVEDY
# Source text: Not limited to known D-proteins, we nominated an original target for MIPD screening, CHIP, and identified three macrocyclic D-peptide binders. CHIP is a member of the RING/U-Box family of E3 ligases that direct the ubiquitination of chaperones[66] and their bound client proteins[67],[68] (Fig. 6A). This interaction is driven by a common (I/M)EEVD motif present on the C-terminus of heat shock protein 70 (Hsp70) and Hsp90 family members that is recognized by the TPR domain of CHIP[69] (Fig. 6B). Degradation driven by CHIP is active in a diverse range of cellular processes from monitoring protein quality control[68] to mediating interferon-γ signaling. Masking of the CHIP-TPR domain can in theory modulate these signaling pathways and as a result is actively being pursued[69],[71]. In addition, CHIP belongs to the same protein family as MDM2 (E3 ubiquitin ligases) and has potential therapeutic relevance by being implicated in neurological disease. For these reasons, we hypothesized that this domain would be a valuable target for D-peptide discovery, and successfully isolated the protein in its mirror image form for MIPD screening. […] All three clusters feature conserved terminal residues with carboxylate functionalities (dD3 in CHIP.C1, dD1/dE2 in CHIP.C2, and dD12 in CHIP.C3), consistent with the conserved terminal aspartic acid residues found on CHIP substrates. Hydrophobic residues are retained in the i,i + 4/5 positions relative to the anchoring aspartic acid residue: dW6 in CHIP.C1, dW6 in CHIP.C2, and dA8 in CHIP.C3, presumably for interaction with the hydrophobic TPR groove.
# Supplementary Figure 14. D-H109 SPR to Recombinant MDM2. Sensorgrams and steady state affinity plots of D-H109 binding to recombinant MDM2 are shown.
# 1.27. CHIP Peptide Binders from Phage Display
# 1.27.1. CHIP Binder Sequences
# Cluster ID Sequence Measured IC50
# CHIP.C1 H201ǂ Ac-pwedcawfawacyni-NH2 470 nM
# CHIP.C2 H203ǂ Ac-phemcywadaycrys-NH2 550 nM
# CHIP.C2 H204ǂ Ac-pldlcywaslhcivs-NH2 770 nM
# Listed sequences were cyclized between C5 and C12 with N,N'-(1,4-phenylene)bis(2-bromoacetamide) . ǂSequences were selected for co-crystallization with CHIP.
# 1.27.2. CHIP Binder FP Validation
# For the competition FP of CHIP, Helicons at 10 mM in DMSO were serially diluted 1:3 in DMSO for a total of 11 concentrations using a Mosquito LV (SPT Labtech), then diluted 1000-fold in buffer (1 x HBS-P+, Cytiva) in duplicate by the Mosquito LV (SPT Labtech) into a black polystyrene 384-well plate (Corning) (11-point three-fold peptide dilution series with top concentration = 10 μM). […]
# HSP70). The plate was incubated and protected from light for 1 hour at room temperature prior to reading. Reads were performed on a CLARIOstar plate reader (BMG Labtech) with excitation at 485 nm, emission at 525 nm, and cutoff at 504 nm. […]
# [2] = target: T2, recombinant MDM2 (biotinylated MDM2[25-109]) (Homo sapiens, UniProt Q00987); test: SPR of macrocyclic D-peptides to recombinant MDM2; assay type: binding; conditions: SI table 1.26.1, Biacore 8K, 25 °C, 1x HBS-P+ with 1% DMSO, top concentration 5 μM, N = 1, * = listed KD value is beyond tested concentrations, read-out: Measured KD
# T2 construct: MDM2 (residues 25-109); made in house
# Source text: We identified three binding clusters selective for D-MDM2 with phage display screening (Fig. 4A and SI Section 1.26). In brief, immobilized D-MDM2 from AFPS was screened against an unbiased phage library of 10^8 members displaying macrocyclic α-helical peptides. We sequenced phage particles that remained bound to the targets after washing using next-generation sequencing. Comparisons of sequencing reads to a spiked-in internal reference allowed for a semi-quantitative read-out of binding affinity as a function of protein bait concentration. […] Consistent with previously described α-helical peptide binders to MDM2[64],[65], all three clusters contain anchoring N-terminal tryptophan residues (dW2 in MDM2.C1, dW1 in MDM2.C2, and dW1 in MDM2.C3), and show conserved hydrophobic residues on the same α-helical face as the tryptophan residue (i,i + 4/5 and i,i + 8/9 relative to dW on each cluster). To validate the specificity of each binding cluster, we synthesized representative binding peptides in the D-form (Fig. 4B, D-H101 from MDM2.C1, D-H102 from MDM2.C2, and D-H103 from MDM2.C3) and measured their affinity to recombinant MDM2 with SPR. We observed binding constants of 5.5 μM, 2.4 μM, and 0.88 μM, respectively (Fig. 4C and Supplementary Figs. 6–8).
# 1.24. YAP1-WW1-WW2 Protein Expression […]
# Cluster ID Sequence Measured KD […]
# [3] = 400 nM CHIP23-303, 20 nM probe 5FAM-bAla-[…], 1 hour room temperature, duplicate
# T2 sequence (Q00987 25-109): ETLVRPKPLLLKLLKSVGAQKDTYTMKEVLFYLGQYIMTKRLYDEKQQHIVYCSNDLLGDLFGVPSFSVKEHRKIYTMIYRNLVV
"IC50 [1, 3] [nM]",SMILES,other results
550,"CSCC[C@@H](NC(=O)[C@@H](CCC(=O)O)NC(=O)[C@@H](Cc1c[nH]cn1)NC(=O)[C@H]1CCCN1C(C)=O)C(=O)N[C@@H]1CSCC(=O)Nc2ccc(cc2)NC(=O)CSC[C@H](C(=O)N[C@H](CCCNC(=N)N)C(=O)N[C@H](Cc2ccc(O)cc2)C(=O)N[C@H](CO)C(N)=O)NC(=O)[C@@H](Cc2ccc(O)cc2)NC(=O)[C@@H](C)NC(=O)[C@@H](CC(=O)O)NC(=O)[C@@H](C)NC(=O)[C@@H](Cc2c[nH]c3ccccc23)NC(=O)[C@@H](Cc2ccc(O)cc2)NC1=O [D-H203] (Ac-[dP][dH][dE][dM][dC][dY][dW][dA][dD][dA][dY][dC][dR][dY][dS]-NH2; linker 5-12 via Phenylene(1,4-NHCOCH2)2)",
,"CC(=O)N[C@H](CC(=O)O)C(=O)N1CCC[C@@H]1C(=O)N[C@H](C)C(=O)N[C@H](CO)C(=O)N[C@H](CCCNC(=N)N)C(=O)N[C@H](CC(N)=O)C(=O)N[C@@H]1CSCC(=O)Nc2ccc(cc2)NC(=O)CSC[C@H](C(=O)N[C@H](CCC(=O)O)C(=O)N[C@H](Cc2ccc(O)cc2)C(=O)N[C@H](Cc2c[nH]c3ccccc23)C(N)=O)NC(=O)[C@@H](CC(C)C)NC(=O)[C@@H](Cc2c[nH]cn2)NC(=O)[C@@H](C)NC(=O)[C@@H](C)NC(=O)[C@@H](Cc2c[nH]c3ccccc23)NC(=O)[C@@H](CCC(N)=O)NC1=O [H107] (Ac-[dD][dP][dA][dS][dR][dN][dC][dQ][dW][dA][dA][dH][dL][dC][dE][dY][dW]-NH2; linker 7-14 via Phenylene(1,4-NHCOCH2)2)",Kd [2]: 1100 nM
,"CC(=O)N1CCC[C@@H]1C(=O)N[C@H](Cc1c[nH]c2ccccc12)C(=O)N[C@H](Cc1c[nH]c2ccccc12)C(=O)N[C@H](CCC(=O)O)C(=O)N[C@@H]1CSCC(=O)Nc2ccc(cc2)NC(=O)CSC[C@H](C(=O)N[C@H](CC(=O)O)C(=O)N[C@H](Cc2ccccc2)C(=O)N[C@H](CCCNC(=N)N)C(N)=O)NC(=O)[C@@H](CC(=O)O)NC(=O)[C@@H](CC(=O)O)NC(=O)[C@@H](C)NC(=O)[C@@H](CCC(N)=O)NC(=O)[C@@H](CO)NC(=O)[C@@H](CC(C)C)NC1=O [D-H202] (Ac-[dP][dW][dW][dE][dC][dL][dS][dQ][dA][dD][dD][dC][dD][dF][dR]-NH2; linker 5-12 via Phenylene(1,4-NHCOCH2)2)","IC50 ([1]; unit as printed in the cell of H202, same competition FP): 1230 nM"
770,"CC[C@@H](C)[C@@H](NC(=O)[C@H]1CSCC(=O)Nc2ccc(cc2)NC(=O)CSC[C@@H](NC(=O)[C@@H](CC(C)C)NC(=O)[C@@H](CC(=O)O)NC(=O)[C@@H](CC(C)C)NC(=O)[C@H]2CCCN2C(C)=O)C(=O)N[C@H](Cc2ccc(O)cc2)C(=O)N[C@H](Cc2c[nH]c3ccccc23)C(=O)N[C@H](C)C(=O)N[C@H](CO)C(=O)N[C@H](CC(C)C)C(=O)N[C@H](Cc2c[nH]cn2)C(=O)N1)C(=O)N[C@@H](C(=O)N[C@H](CO)C(N)=O)C(C)C [H204] (Ac-[dP][dL][dD][dL][dC][dY][dW][dA][dS][dL][dH][dC][dI][dV][dS]-NH2; linker 5-12 via Phenylene(1,4-NHCOCH2)2)",
470,"CC[C@@H](C)[C@@H](NC(=O)[C@@H](CC(N)=O)NC(=O)[C@@H](Cc1ccc(O)cc1)NC(=O)[C@H]1CSCC(=O)Nc2ccc(cc2)NC(=O)CSC[C@@H](NC(=O)[C@@H](CC(=O)O)NC(=O)[C@@H](CCC(=O)O)NC(=O)[C@@H](Cc2c[nH]c3ccccc23)NC(=O)[C@H]2CCCN2C(C)=O)C(=O)N[C@H](C)C(=O)N[C@H](Cc2c[nH]c3ccccc23)C(=O)N[C@H](Cc2ccccc2)C(=O)N[C@H](C)C(=O)N[C@H](Cc2c[nH]c3ccccc23)C(=O)N[C@H](C)C(=O)N1)C(N)=O [D-H201] (Ac-[dP][dW][dE][dD][dC][dA][dW][dF][dA][dW][dA][dC][dY][dN][dI]-NH2; linker 5-12 via Phenylene(1,4-NHCOCH2)2)",
